Source: PubChem BioAssay (NCI)
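Results reflect a 48-hour exposure of cells in 96-well plates to compound at five concentrations. Here, GI50 denotes the concentration required for 50% inhibition of growth. TGI is the concentration that stops growth completely.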 Where a SMILES comes first, the peptide text is derived from it. [ ]: non-standard residue; d: D form. The star is where a group is joined. Phe(4-NO2) = N[CH](Cc1ccc([N+](=O)[O-])cc1)C(=O)O; Boc = CC(C)(C)OC(=O)*; OBn = c1ccc(CO*)cc1

Legend:
Experiment in all cases: inhibition of tumour cell growth, NCI panel, 48 h
[1] = system: BT-549 breast
[2] = system: CAKI-1 renal
[3] = system: COLO 205 colon
[4] = system: HCC-2998 colon
[5] = system: IGROV1 ovarian
[6] = system: LOX IMVI melanoma
[7] = system: NCI-H522 lung
[8] = system: OVCAR-4 ovarian
[9] = system: RXF 393 renal
[10] = system: SK-MEL-2 melanoma

Row | Compound | TGI [1] | TGI [2] | TGI [3] | TGI [4] | TGI [5] | TGI [6] | TGI [7] | TGI [8] | TGI [9] | TGI [10] | GI50 [1] | GI50 [6] | GI50 [10]
1 | COc1cc(-c2nc3cc(F)ccc3s2)ccc1O | > 100 µM | > 100 µM | > 100 µM | 55.5 µM | > 100 µM | > 100 µM | 78.4 µM | > 100 µM | > 100 µM | > 100 µM | – | – | –
2 | COC(=O)CCC(NC(=O)OC(C)(C)C)C(=O)NC(Cc1ccc([N+](=O)[O-])cc1)C(=O)NCC(=O)OCc1ccccc1 (configuration not stated) (Boc-Glu(OMe)-[Phe(4-NO2)]-Gly-OBn; configuration not given here) | 66.9 µM | > 100 µM | > 100 µM | > 100 µM | > 100 µM | > 86.3 µM | > 100 µM | > 100 µM | > 72.8 µM | > 100 µM | – | – | –
3 | Cc1cc2c(cc1Cl)Sc1nnc(Nc3ccccc3)n1S2(=O)=O | 34 µM | 53.8 µM | – | 14.2 µM | 54.6 µM | 18.7 µM | 14.2 µM | 32 µM | 24.2 µM | 21.2 µM | – | – | –
4 | Cn1ccnc1Sc1ccc(/C=N/NC(=O)c2ccccc2O)cc1[N+](=O)[O-] | > 100 µM | > 100 µM | 56.8 µM | > 100 µM | > 100 µM | > 100 µM | > 100 µM | > 100 µM | > 100 µM | > 100 µM | – | – | –
5 | COc1cccc(N2C(=O)C3c4[nH]c5ccccc5c4C4c5ccccc5CCC4C3C2=O)c1 (configuration not stated) | > 10 µM | > 10 µM | > 10 µM | > 10 µM | > 10 µM | > 10 µM | > 10 µM | > 7.12 µM | > 10 µM | > 10 µM | – | – | –
6 | OC(C1CCC=NN1C(O)(C(F)(F)F)C(F)(F)F)(C(F)(F)F)C(F)(F)F (configuration not stated) | > 10 µM | > 10 µM | > 10 µM | > 10 µM | > 10 µM | > 10 µM | > 10 µM | > 10 µM | > 10 µM | > 10 µM | – | – | –
7 | CC(=O)O/C=C\OC1CCCC1(c1ccccc1)c1ccccc1 (configuration not stated) | 4.66 µM | 14.3 µM | 13.8 µM | 24.3 µM | 6.08 µM | 3.14 µM | 23.3 µM | 7.25 µM | 5.06 µM | 12.5 µM | – | – | –
8 | COc1cc2c3cc1Oc1c(O)c(OC)cc4c1[C@H](Cc1ccc(cc1)Oc1cc(ccc1O)C[C@H]3N(C)CC2)N(C)CC4 | 28.4 µM | 86.3 µM | 28.5 µM | 22.8 µM | 36.1 µM | 17.8 µM | 27 µM | 48 µM | 13.9 µM | 25.6 µM | – | – | –
9 | S=C1c2ccccc2NC(=NC2CCCC2)C2CSCN12 (configuration not stated) | > 100 µM | > 100 µM | > 100 µM | > 100 µM | > 100 µM | > 100 µM | > 100 µM | > 100 µM | > 100 µM | > 100 µM | – | – | –
10 | COc1ccc2c(c1)OC(c1cccnc1)C(c1ccccc1)C2=O (configuration not stated) | > 100 µM | > 100 µM | > 100 µM | > 100 µM | > 100 µM | > 100 µM | > 100 µM | > 100 µM | > 100 µM | > 100 µM | – | – | –
11 | Cn1ccnc1S/C(=C\C=C(C#N)C#N)c1ccc(Cl)cc1 | > 28.7 µM | 6.16 µM | > 35.6 µM | 9.54 µM | 16.1 µM | 0.443 µM | 11.5 µM | > 17.9 µM | 5.4 µM | > 45.5 µM | 5.14 µM | 0.0671 µM | 5.38 µM
12 | N#CC1=C2Sc3ccccc3N2[C@H](c2ccccc2)[C@H]2COC(=O)[C@@H]12 | 70.6 µM | 52.8 µM | > 100 µM | > 100 µM | – | 91.6 µM | 27 µM | > 100 µM | > 100 µM | > 100 µM | – | – | –
13 | CC(=O)Oc1ccc(/C=C/C(=O)O[C@@H](C)[C@H](C)OC(=O)/C=C/c2ccc(OC(C)=O)c(OC(C)=O)c2)cc1OC(C)=O | 89.2 µM | > 100 µM | > 100 µM | 50.4 µM | > 100 µM | 29 µM | 28.1 µM | > 100 µM | 44.6 µM | > 100 µM | – | – | –
14 | Oc1ccc(/C=C\c2nnc(/C=C\c3ccc(O)c(O)c3)s2)cc1O | 40.6 µM | 16.8 µM | 22.5 µM | 23.9 µM | 20.7 µM | > 55.2 µM | 3.29 µM | 16 µM | 18.5 µM | 40.7 µM | – | – | –
15 | c1ccc2c(-c3cnc(-c4c[nH]c5ccccc45)cn3)c[nH]c2c1 | > 100 µM | > 100 µM | > 100 µM | > 100 µM | > 100 µM | 94.2 µM | 64.2 µM | > 100 µM | > 100 µM | > 100 µM | – | – | –
16 | NCCC(N)C(=O)O (configuration not stated) | > 100 µM | > 100 µM | > 100 µM | – | > 100 µM | > 100 µM | > 100 µM | > 100 µM | > 100 µM | > 100 µM | – | – | –
17 | CN1CC2=C(OC(N)=C(C#N)C2c2cccs2)/C(=C/c2cccs2)C1 (configuration not stated) | > 100 µM | > 100 µM | > 100 µM | > 100 µM | > 65.8 µM | > 63.3 µM | > 53 µM | 39.4 µM | 48.5 µM | > 64.4 µM | – | – | –
18 | CC(C)(CN)CN | > 100 µM | > 100 µM | > 100 µM | > 100 µM | > 100 µM | > 100 µM | > 100 µM | > 100 µM | > 100 µM | > 100 µM | – | – | –

Row | Compound | TGI [1] | TGI [2] | TGI [3] | TGI [4] | TGI [5] | TGI [6] | TGI [7] | TGI [8] | TGI [9] | TGI [10] | GI50 [1] | GI50 [6] | GI50 [10]
19 | COc1ccc2nc3cc(Cl)ccc3c(NCCCCCC(=O)NC(COc3cnc4c(ccc5cccnc54)c3)COc3cnc4c(ccc5cccnc54)c3)c2c1 | 24.1 µM | > 100 µM | 10.7 µM | 27.9 µM | > 100 µM | 86.4 µM | > 100 µM | > 100 µM | 30.2 µM | 41.5 µM | – | – | –
20 | N=C(N)SCCON1C(=O)c2ccccc2C1=O | > 100 µM | > 100 µM | > 100 µM | – | > 100 µM | > 100 µM | > 100 µM | > 100 µM | > 100 µM | > 100 µM | – | – | –
21 | CCCCOC(=O)C(=O)C(CCC(=O)c1ccc(C)cc1)C(=O)C=C(C)C (configuration not stated) | > 100 µM | > 100 µM | – | > 100 µM | > 100 µM | > 100 µM | > 100 µM | > 100 µM | > 100 µM | > 100 µM | – | – | –
22 | COC(=O)/C=C/c1ccccc1N=[S@](C)(=O)c1ccc(C)cc1 | > 100 µM | > 100 µM | 26.7 µM | 50.1 µM | > 100 µM | > 100 µM | 7.99 µM | > 100 µM | 37.1 µM | 70.7 µM | – | – | –
23 | Cc1ccc([N+](=O)[O-])cc1S(=O)(=O)Nc1ccc(C2=NN(c3ccc([N+](=O)[O-])cc3[N+](=O)[O-])C(c3ccccc3)C2)cc1 (configuration not stated) | 33 µM | > 100 µM | 37.4 µM | – | 36 µM | 32.2 µM | 25.9 µM | 73.7 µM | 33.4 µM | 33.7 µM | – | – | –
24 | CC(C)(CO)CNc1cc(=O)[nH]c(N)n1 | > 100 µM | > 100 µM | > 100 µM | > 100 µM | > 100 µM | > 100 µM | > 100 µM | > 100 µM | > 100 µM | > 100 µM | – | – | –
25 | O=[N+]([O-])c1cccc(-c2csc(N=Nc3c(O)[nH]c4ccccc34)n2)c1 | > 100 µM | 47 µM | > 100 µM | 32 µM | 54.6 µM | 42.5 µM | 36.6 µM | 61.7 µM | 77.9 µM | > 100 µM | – | – | –
26 | COc1ccc(N2C=Nn3c(nc4sc(C)c(C)c4c3=O)C2)cc1 | > 100 µM | > 100 µM | > 100 µM | > 100 µM | > 100 µM | > 100 µM | > 100 µM | > 100 µM | > 100 µM | > 100 µM | – | – | –
27 | CC(C)Oc1c(-c2c(OC(C)C)c(=O)c2=O)c(=O)c1=O | > 61.3 µM | > 100 µM | > 51.9 µM | > 100 µM | > 51.5 µM | > 47.1 µM | > 27.7 µM | > 62.9 µM | > 78.5 µM | > 89.1 µM | – | – | –
28 | CC(C)/C(Cl)=N/OC(=O)Nc1ccc(F)c(Cl)c1 | 9.98 µM | 3.06 µM | 3.25 µM | 28.1 µM | 28.4 µM | 3.59 µM | 3.01 µM | 24.3 µM | 25.6 µM | 34.2 µM | – | – | –
29 | CCN(CC)Cc1nc2sc3c(c2c(=O)n1-c1ccccc1)CCCC3 | 53.6 µM | 56.9 µM | 43.6 µM | 33.6 µM | 39 µM | 28.7 µM | 44.9 µM | 97.4 µM | 37.6 µM | 38.6 µM | – | – | –
30 | Cc1ccc(N=Nc2c(C)nn(C(=O)CC(=O)Nc3ccccc3)c2C)cc1C | > 100 µM | > 100 µM | > 100 µM | > 100 µM | > 100 µM | > 100 µM | > 100 µM | > 100 µM | > 100 µM | > 100 µM | – | – | –
31 | COc1cc2c(cc1C[N+](C)(C)CSc1ccccc1)-c1ccccc1CC2 | 15.5 µM | 26.4 µM | 5.73 µM | 13.6 µM | 12.5 µM | 14.6 µM | 10.7 µM | 18.9 µM | 23.1 µM | 5.21 µM | – | – | –
32 | CC(=O)NNc1nc(C)c(C(/C=C/c2ccc3c(c2)OCO3)=N/Nc2ccccc2)s1 | > 100 µM | > 100 µM | > 100 µM | > 100 µM | > 100 µM | > 100 µM | > 100 µM | > 100 µM | > 100 µM | > 100 µM | – | – | –
33 | c1ccc(CNc2c3c(nc4ccccc24)CCC3)cc1 | 37.1 µM | 45.3 µM | 25 µM | 26.5 µM | 42.4 µM | 28.4 µM | 39.3 µM | 58.7 µM | 30.4 µM | 27.2 µM | – | – | –
34 | CCOC(C[Se]CC(OCC)OCC)OCC | 94 µM | > 100 µM | > 100 µM | > 100 µM | 93.2 µM | 59.4 µM | > 100 µM | > 100 µM | 85.8 µM | > 100 µM | – | – | –
35 | COC(=O)Cc1ccc2c(c1)Sc1ccc(CC(=O)OC)cc1N2C | 91.7 µM | 52 µM | 53.8 µM | > 100 µM | > 100 µM | > 57.1 µM | 58.1 µM | > 100 µM | > 100 µM | > 100 µM | – | – | –
